Like-named read-outs stand apart in the source and are kept apart here.
Key:
cdk2/cyclin E = cdk2/cyclin E (Homo sapiens, UniProt P24941); assay: Cyclin-dependent kinase assay, cdk2/cyclin E (GST-pRb substrate); settings: read-out: CDK2 IC50; inhibition of cyclin E/CDK 2 enzyme activity
Description: (§7) The IC50 values for cdk1/cyclin B, cdk2/cyclin E, and cdk4/cyclin D1 inhibition are determined using the following methods:
The cdk2 sequence (accession number X62071) is amplified by PCR and cloned into the SpeI and XhoI sites of pFASTBAC1 (Life Technologies). […] This primer would anneal in the 3′ untranslated sequence.
The cyclin E sequence (accession number M73812) is amplified by PCR and cloned into the XbaI and XhoI sites of pFASTBAC1 (Life Technologies).
(§8) The cDNA for each of the cyclin-dependent kinases (CDK) and the corresponding cyclins are cloned into the baculovirus expression vector, pFASTBAC1 (Life Technologies). The sequences of each of the constructs are confirmed by automated fluorescent DNA sequencing according to the manufacture's protocol (Perkin Elmer/Applied Biosystems Inc).
(§9) The insect cell (Sf9) expression is optimized for each of the CDK/cyclin pairs according to the manufacturer's protocols (Life Technologies).
(§10) The viruses are added to the cells and the culture is incubated at 27° C. for the desired time. The cells are harvested by centrifugation at 3000 rpm for 10 minutes. The cells are snap frozen on dry ice and stored at −80° C.
(§11) Cell extracts are made following a standard procedure. The cell pellet is resuspended in lysis buffer (50 mM HEPES, pH 8.0, 10 mM MgCl2, 1 mM DTT, 2.5 mM EGTA, 1 mM EDTA, 10 mM β-glycerophosphate, 1 mM sodium vanadate, 1 mM sodium fluoride, 1×Protease inhibitor cocktail). The cells are lysed using the microfluidizer (Microfluidics) for 20 minutes. Cell debris is removed by centrifugation at 100,000×g. The cell extracts are aliquoted in 1 ml aliquots, frozen on dry ice, and stored at −80° C.
The kinase reactions are performed following a standard procedure. […]
The transformed bacteria are grown overnight to saturation, then diluted in YT broth and incubated at 37° C. for 2 h. […] The beads are washed with kinase buffer and then quantitated of Coomassie blue-stained proteins separated by SDS-PAGE using a protein standard of known concentration.

PC-3 = assay: In vitro proliferation assay (MTT), PC-3; type: cell-based, human; settings: MTT assay; mean (SD, n) where given; read-out: PC-3 Prostate (IC50 μM)
Description: (§1) The proliferation of tumor cells can be measured using a tetrazolium salt-based assay known as the MTT (3-[4,5-Dimethylthiazol-2-yl]-2,5-diphenyltetrazolium bromide) assay. […] For the assay, the cell lines are plated onto 96 well plates at 1000 to 2500 cells/well (depending on the properties of the individual cell lines), left to attach and recover overnight. […] After 3 days, the cells are incubated with MTT dye (3-[4,5-Dimethylthiazol-2-yl]-2,5-diphenyltetrazolium bromide, Sigma #M5655, 10 mg/ml in Hank's Buffered Saline) to estimate the amount of live cells remaining vs. concentration for the test compounds. […] The MTT and culture medium is then removed from the cultures and 200 μl of DMSO is added to solubilize the dye from the cell layer. The absorbance at 570 nm is determined for each culture using a Spectramax plate reader (Molecular Devices).
(§2) IC50s were determined from the raw data from either the MTT or SRB assays.
(§3) All of the cell lines were obtained from American Type Tissue Collection, with the ATCC accession number in parentheticals. MCF-7 and MDA-MB-231 cells were grown in improved minimum essential medium (Biofluids) without phenol red, supplemented with 5% fetal bovine serum, 0.01 mg/ml gentamicin and 3 mM L-glutamine.

cdk1/cyclin B = cdk1/cyclin B (Homo sapiens, UniProt P06493); assay: Cyclin-dependent kinase assay, cdk1/cyclin B (Histone H1 substrate); settings: read-out: CDK1 IC50; inhibition of cyclin B/CDK 1 enzyme activity
Sequence of cdk1/cyclin B (P06493 whole entry): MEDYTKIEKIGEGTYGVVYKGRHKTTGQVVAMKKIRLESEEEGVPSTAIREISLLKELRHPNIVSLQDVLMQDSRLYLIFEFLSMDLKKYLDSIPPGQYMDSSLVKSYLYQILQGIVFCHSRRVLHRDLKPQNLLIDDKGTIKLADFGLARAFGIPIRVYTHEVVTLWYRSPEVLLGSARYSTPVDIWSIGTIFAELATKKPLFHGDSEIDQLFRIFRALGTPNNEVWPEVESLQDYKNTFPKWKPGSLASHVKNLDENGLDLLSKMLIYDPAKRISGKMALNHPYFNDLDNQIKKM
Sequence of cdk1/cyclin B (P14635 whole entry partner): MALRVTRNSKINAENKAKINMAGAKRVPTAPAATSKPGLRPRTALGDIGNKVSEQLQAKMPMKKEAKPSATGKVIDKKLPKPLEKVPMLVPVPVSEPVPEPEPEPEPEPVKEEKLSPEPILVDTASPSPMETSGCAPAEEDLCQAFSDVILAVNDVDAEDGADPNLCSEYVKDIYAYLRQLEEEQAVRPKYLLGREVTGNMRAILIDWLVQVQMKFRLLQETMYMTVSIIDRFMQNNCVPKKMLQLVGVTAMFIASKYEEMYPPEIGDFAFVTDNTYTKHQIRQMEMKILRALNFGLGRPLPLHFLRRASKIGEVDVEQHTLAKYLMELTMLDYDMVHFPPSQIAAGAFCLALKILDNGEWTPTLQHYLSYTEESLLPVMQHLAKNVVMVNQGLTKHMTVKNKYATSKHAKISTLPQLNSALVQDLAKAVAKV
Description: as §7
The cdk1 sequence (accession number Y00272) is amplified by PCR and cloned into the BamHI and SalI sites of pFASTBAC1 (Life Technologies).
The cyclin B1 sequence (accession number M25753) is amplified by PCR and cloned into the BamHI and SalI sites of pFASTBAC1 (Life Technologies).
as §8, §9, §10, §11
The kinase reactions are performed following a standard procedure. The enzyme and inhibitor are diluted in kinase buffer (50 mM HEPES, pH 8.0, 10 mM MgCl2, 2.5 mM EGTA, 10 mM β-glycerophosphate, 1 mM sodium vanadate, 1 mM sodium fluoride, and 1 mM DTT) and pre-incubated for 30 minutes. […] The cdk1 enzyme activity is assayed using Histone H1 (Sigma) in the presence of 10 μM ATP for 30 min at room temperature. The reactions are terminated by the addition of 50 μL of 10 mM cold ATP to stop the reactions. The reactions are transferred to a pre-soaked 96-well multi-screen plate containing 30 μL of 100% TCA per well. After incubation for one hour at room temperature, the plates are washed twice with 200 μl of 20% TCA, followed by 200 μl of 10% TCA and finally with 200 μl of 5% TCA. After drying the plates at room temperature, the filter plates are placed in adapter plates (Packard) and 40 μl of Microscint-O® (Packard) is added to each well. Top Seal A film is used to cover the plates before counting in a Top Count Scintillation Counter.
The % remained activity of the indicated Cdk/cyclin kinase complex in the presence of inhibitor is calculated by the ratio of cpm in the presence of inhibitor to cpm in the absence of inhibitor (% Activity=vi/vo×100%).

HL-60 = assay: In vitro proliferation assay (MTT), HL-60; type: cell-based, human; settings: read-out: HL-60 Leuk. (IC50 μM)
Description: (§4) The proliferation of tumor cells can be measured using a tetrazolium salt-based assay known as the MTT (3-[4,5-Dimethylthiazol-2-yl]-2,5-diphenyltetrazolium bromide) assay. The proliferation test is performed essentially as described by Carmichael et al., Cancer Res. 47: 936-942, 1987. For the assay, the cell lines are plated onto 96 well plates at 1000 to 2500 cells/well (depending on the properties of the individual cell lines), left to attach and recover overnight. […] After 3 days, the cells are incubated with MTT dye (3-[4,5-Dimethylthiazol-2-yl]-2,5-diphenyltetrazolium bromide, Sigma #M5655, 10 mg/ml in Hank's Buffered Saline) to estimate the amount of live cells remaining vs. concentration for the test compounds. Specifically, MTT solution is added to a final concentration of […] and the plates incubated at 37 C for 2 to 4 hr. The MTT and culture medium is then removed from the cultures and 200 μl of DMSO is added to solubilize the dye from the cell layer. The absorbance at 570 nm is determined for each culture using a Spectramax plate reader (Molecular Devices).
as §2
(§5) All of the cell lines were obtained from American Type Tissue Collection, with the ATCC accession number in parentheticals. […]

cdk4/cyclin D1 = cdk4/cyclin D1 (Homo sapiens, UniProt P11802); assay: Cyclin-dependent kinase assay, cdk4/cyclin D1 (GST-pRb substrate); type: biochemical
Sequence of cdk4/cyclin D1 (P11802 whole entry): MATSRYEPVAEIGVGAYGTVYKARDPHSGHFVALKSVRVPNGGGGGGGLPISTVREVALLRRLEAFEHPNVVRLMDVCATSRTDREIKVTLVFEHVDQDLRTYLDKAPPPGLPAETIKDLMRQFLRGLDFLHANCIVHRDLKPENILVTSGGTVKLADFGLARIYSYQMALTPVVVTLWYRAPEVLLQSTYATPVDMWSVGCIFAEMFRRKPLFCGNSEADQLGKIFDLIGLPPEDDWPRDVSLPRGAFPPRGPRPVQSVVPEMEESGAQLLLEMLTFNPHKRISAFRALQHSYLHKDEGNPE
Sequence of cdk4/cyclin D1 (P24385 whole entry partner): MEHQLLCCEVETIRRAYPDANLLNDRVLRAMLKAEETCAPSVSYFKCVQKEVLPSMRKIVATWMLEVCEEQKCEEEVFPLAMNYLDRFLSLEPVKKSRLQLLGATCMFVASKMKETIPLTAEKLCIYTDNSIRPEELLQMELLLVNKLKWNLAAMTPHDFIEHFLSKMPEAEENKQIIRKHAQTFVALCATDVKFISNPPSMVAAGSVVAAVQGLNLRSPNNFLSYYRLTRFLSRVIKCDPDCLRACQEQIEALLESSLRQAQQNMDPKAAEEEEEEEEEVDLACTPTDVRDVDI

HL-60 human leukemia = HL-60 human leukemia xenograft in nude mice; type: in vivo; settings: Table 5, control 8341 ± 5355
Description: (§6) Antitumor efficacy is assessed using two subcutaneous human tumor xenograft models. The studies are performed using conventional assay techniques. Briefly, HL-60 (leukemia, 5×10^5 cells) and PC-3 (prostate, 5×10^6 cells) tumor cells are injected subcutaneously into nude mice (Cr1-CD1-Br-nu, Charles River Laboratory, Wilmington, Mass.). Dosing with compounds began when tumors reached 50 to 100 mm^3. The dose route/schedule for the test compounds is ip/q1d (5×/wk). The test doses are set based on the maximum tolerated dose (MTD). […] The test doses for the efficacy studies are set at ⅓rd the MTD (low dose) and the MTD (high dose). The results are shown in Tables 4 and 5 (HL-60, leukemia) (PC-3, prostate cancer). The length of the treatment phase is dependent on the tumor growth rate for the two models. This treatment phase is typically about 3 weeks for the HL-60 model and about 5 weeks for the PC-3 model. […] Dosing with flavopiridol is for the same time frame as for the experimental compounds in both xenograft models. Tumor volume (twice weekly) and body weights (once weekly) are monitored throughout the course of the treatment phase of the experiment. Tumor sizes are measured by external caliper measurements of protruding tumor. Volumes are calculated using the following formula: volume=½ (a×b2), where b is the smaller of two perpendicular diameters.

MDA-MB-435 = assay: In vitro proliferation assay (MTT), MDA-MB-435; type: cell-based, human; settings: mean (SD, n) where given, read-out: MB-435 Breast (IC50 μM)
Description: as §1, §2, §3

[1] = test system: PC-3 human prostate tumors; assay: PC-3 human prostate tumor xenograft in nude mice; type: in vivo; settings: Table 5, control 1308 ± 852
Description: as §6

Jurkat = assay: In vitro proliferation assay (MTT), Jurkat; type: cell-based, human; settings: read-out: Jurkat Leuk. (IC50 μM)
Description: as §4, §2, §5

NCI-H460 = assay: In vitro proliferation assay (MTT), NCI-H460; type: cell-based, human; settings: read-out: H-460 Lung (IC50 μM)
Description: as §4, §2, §5

Colo-205 = assay: In vitro proliferation assay (MTT), Colo-205; type: cell-based; settings: read-out: Colo-205 Colon (IC50 μM)
Description: as §4, §2

Substance | IC50 (cdk2/cyclin E) [nM] | IC50 (PC-3) [µM] | IC50 (cdk1/cyclin B) [nM] | IC50 (HL-60) [µM] | IC50 (cdk4/cyclin D1; inhibition of cyclin D1/CDK 4 enzyme activity) [nM] | HL60 Mean Vol. ± SD (HL-60 human leukemia; 1 mg/kg ip q1d 5x/wk) | HL60 Mean Vol. ± SD (HL-60 human leukemia; 3 mg/kg ip q1d 5x/wk) | IC50 (MDA-MB-435) [µM] | PC-3 Mean Vol. ± SD ([1]; 1 mg/kg ip q1d 5x/wk) | PC-3 Mean Vol. ± SD ([1]; 3 mg/kg ip q1d 5x/wk) | IC50 (Jurkat) [µM] | IC50 (NCI-H460) [µM] | IC50 (Colo-205) [µM] | IC50 (cdk4/cyclin D1) [nM]
trans-1-{4-[2-(4-Amino-cyclohexylamino)-9-cyclopentyl-9H-purin-6-ylamino]-piperidin-1-yl}-1-(4-trifluoromethyl-phenyl)-methanone dihydrochloride [Compound 3] | 48 | 0.66 | 55 | 0.13 | 1120 | 6370 ± 4655 | 6092 ± 4278 | 0.25 | 671 ± 672 | 785 ± 473 | 0.22 | – | – | –
trans-N^2-(4-Amino-cyclohexyl)-9-cyclohexyl-N^6-[1-(4-chloro-benzenesulfonyl)-piperidin-4-yl]-9H-purine-2,6-diamine dihydrochloride [Compound 108] | 10 | 0.43 | 7 | – | – | – | – | 0.14 | – | – | – | 0.29 | 0.18 | 170

— patent publication US6861524B2, “Acyl and sulfonyl derivatives of 6,9-disubstituted 2-(trans-1,4-diaminocyclohexyl)-purines and their use as antiproliferative agents” (Aventis Pharmaceuticals Inc., priority 2000, dated 2005)
